From publication PMC12442245, “Activity Analysis of the P2X Receptor Antagonist PPADS against Signal Transducer and Activator of Transcription Proteins” (Chembiochem, 2025) come the findings set out here.

The test deals with T1, STAT4 (Homo sapiens, UniProt Q14765).
T1 sequence (Q14765 1-748): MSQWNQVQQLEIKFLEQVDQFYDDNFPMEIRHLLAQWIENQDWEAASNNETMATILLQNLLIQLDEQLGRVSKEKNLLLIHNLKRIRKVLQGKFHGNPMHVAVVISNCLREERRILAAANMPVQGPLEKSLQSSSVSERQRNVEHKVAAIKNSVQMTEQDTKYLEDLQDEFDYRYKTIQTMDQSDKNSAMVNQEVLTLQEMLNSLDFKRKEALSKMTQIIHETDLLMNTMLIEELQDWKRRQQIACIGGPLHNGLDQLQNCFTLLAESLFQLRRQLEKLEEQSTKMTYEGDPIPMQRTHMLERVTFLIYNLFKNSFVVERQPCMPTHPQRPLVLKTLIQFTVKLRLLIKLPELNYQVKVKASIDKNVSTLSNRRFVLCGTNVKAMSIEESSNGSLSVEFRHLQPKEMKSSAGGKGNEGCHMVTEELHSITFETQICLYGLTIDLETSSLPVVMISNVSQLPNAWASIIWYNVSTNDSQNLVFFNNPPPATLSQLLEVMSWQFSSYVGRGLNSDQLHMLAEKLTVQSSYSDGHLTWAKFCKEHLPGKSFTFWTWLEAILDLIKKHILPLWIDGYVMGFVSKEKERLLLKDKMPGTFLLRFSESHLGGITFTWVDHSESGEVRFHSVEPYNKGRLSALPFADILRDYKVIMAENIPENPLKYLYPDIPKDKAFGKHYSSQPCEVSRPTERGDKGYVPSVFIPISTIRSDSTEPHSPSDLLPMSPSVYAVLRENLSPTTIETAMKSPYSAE
Nature of the test: HTRF assay, STAT4. As to conditions: STAT4 30 nM, without reducing agent, 1 h. The test is classed as binding. From the text: The azo dyes PPADS and iso‐PPADS have a deep red color in aqueous solution. […] In order to exclude this possibility, we established homogeneous time‐resolved fluorescence resonance energy transfer (HTRF) assays to confirm the degree of binding between STAT4, STAT5a, and STAT5b and the respective 5‐carboxyfluorescein‐labeled binding peptides used in the FP assay. In addition, an HTRF assay was established for STAT3, one of the STAT proteins targeted to a lesser extent in FP assays, as a specificity control (Figure 1B,C). The STAT protein constructs each contain a 6x‐His‐tag.^[ [15], [16], [17], [22] ^] A Tb^3+‐cryptate fused to an anti‐6x‐His antibody was chosen as the long‐lived fluorescent donor, while the carboxyfluorescein linked to the respective STAT‐binding peptides served as the acceptor (Figure 2A). Emission was measured with a time delay of 60 μs after excitation, allowing any initial compound fluorescence to decay beforehand. […]
Screening of chemical libraries comprising approximately 5000 known bioactive compounds in fluorescence polarization-based assays against phosphorylation-dependent protein-protein interaction domains, including STAT proteins, has been described.[1] […]
Fluorescence polarization assays
Competitive fluorescence polarization (FP) assays for STAT1,[2] […] Briefly, peptide binding to proteins was analyzed using the following carboxyfluorescein (CF) -labelled pepti des at a concentration of 10 nM: STAT1: 5-CF-GpYDKPHVL-OH, STAT3: 5-CF-GpYLPQTV -NH2, STAT4: 5-CF-GpYLPQNID-OH, STAT5a and STAT5b: 5-CF-GpYLVLDKW-OH, STAT6: 5- […]
CFGp[…]-OH. […] FP was measured using an Infinite F500 plate reader (Tecan) and measurements were converted into percent inhibition according to the binding curve equation. Curves were plotted and best fits calculated using OriginPro […]
Homogenous time-resolved fluorescence (HTRF) assays for STAT3, STAT4, STAT5a and STAT5b were carried out using Cisbio Monoclonal Antibody Anti-6His-Tb Gold as the fluorescence donor (Perkin Elmer) and the corresponding CF-labelled binding peptide as the acceptor. […] The average reading from 3 wells was obtained. […]

As a reminder, the IC50 is the concentration that inhibits the measured activity by half.

As for `Cc1nc(/N=N/c2ccc(S(=O)(=O)O)cc2S(=O)(=O)O)c(COP(=O)(O)O)c(C=O)c1O` [PPADS, pyridoxalphosphate‐6‐azophenyl‐2',4'‐disulfonic acid], the IC50 was 2.92 ± 0.36 µM. Under `Cc1nc(/N=N/c2cc(S(=O)(=O)O)ccc2S(=O)(=O)O)c(COP(=O)(O)O)c(C=O)c1O` [iso‐PPADS] stands 8.6 ± 1.3 µM.
